Results: patent US20220062268A1, “PHARMACEUTICAL COMPOSITION FOR THE TREATMENT OF PARKINSON'S DISEASE” (Teva Pharmaceuticals International GmbH, priority 2014, published 2022)
“Also recorded” adds a separate entry of the source. Read-outs that look alike come from different tables or passages of the source.

Key:
[1] = system: late Parkinson's disease; settings: cited from earlier work
[2] = system: striatal dopamine; settings: compared to L-DOPA, cited from earlier work
[3] = system: MPTP monkey model of Parkinson's disease; test: MPTP monkey model of Parkinson's disease: tremor and Good ON; assay type: in vivo, Macaca fascicularis; settings: MPTP macaques; DP-102 versus same dose of L-DOPA; tremor score summed over 3 hours post dose; FIG. 1
Description: Macaques (Macaca fascicularis) were rendered parkinsonian by repeated daily injections of MPTP hydrochloride (0.2 mg/kg, i.v.) until parkinsonian signs appeared. The degree of parkinsonism was assessed using a validated parkinsonian macaque clinical scale which rates the following symptoms of parkinsonian disability: tremor (0-3), variations in the general level of activity (0-3), body posture (flexion of spine; 0-3), vocalization (0-2), freezing (0-2), frequency of arm movements (reaching for food, 0-3 for each upper limb), and rigidity (0-3 for each upper limb).
The maximum parkinsonian disability score was 25. MPTP administration was stopped when a score of 6 was reached on the above scale (usually day 13-17). The macaques were left untreated, for a minimum of 6 weeks, until their parkinsonism became stable.
This study assessed the test item in a within-subject design with an intra-individually escalating dosage regimen.
Eight animals were randomly assigned to one of two treatment sequence groups (1: AB, 2: BA). […]
Tremor was assessed for 3 hours post L-DOPA administration for 10 minutes every 30 minutes, by post hoc analysis of video recordings by a trained assessor blinded to the study treatments. […]
The anti-parkinsonian action was evaluated based upon the “ON” state of the animals. […]

[4] = system: Parkinson models; settings: cited from earlier work
[5] = neutral pH; cited from earlier work

CN1CCc2cccc3c2[C@H]1Cc1ccc(O)c(O)c1-3 [apomorphine]
dose of oral L-DOPA under infused apomorphine ([1]; daily dose of infused apomorphine 72.00±21.38 mg, reduced from 989.4±420.1 mg/day (Ruiz et al.)): 663.8 ± 403.2 mg/day | reduction of L-DOPA ([1]; mean daily apomorphine dose of 75.2 mg (Katzenschlager et al.)): 55%

[2H]C([2H])(c1ccc(O)c(O)c1)[C@]([2H])(N)C(=O)O [DP-102, L-2-Amino-2,3,3-trideutero-3-(3,4-dihydroxyphenyl) propionic acid]
striatal dopamine levels ([2]; listed as α,β,β-D3-L-DOPA): higher longer-lasting striatal dopamine levels than L-DOPA; also recorded: increase and prolong the output of striatal dopamine significantly more than L-DOPA | tremor in relation to Good ON [3]: less tremor at more Good ON | equi-effective dose compared to L-DOPA ([4]; in vivo): about 60% | motor activity ([4]; several Parkinson models, compared to L-DOPA): improved motor activity compared to L-DOPA

N[C@@H](Cc1ccc(O)c(O)c1)C(=O)O [L-DOPA, (2S)-2-amino-3-(3,4-dihydroxyphenyl)propanoic acid, reference compound]
tremor in relation to Good ON [3]: higher or observed at lower Good ON levels | solubility [5]: poorly dissolved at neutral pH

[2H][C@@H](c1ccc(O)c(O)c1)[C@]([2H])(N)C(=O)O [α,β-D2-L-DOPA, S/S-2-amino-2,3-dideutero-3-(3,4-dihydroxyphenyl) propionic acid]
striatal dopamine levels [2]: increase and prolong the output of striatal dopamine significantly more than L-DOPA; also recorded: highest striatal dopamine concentrations
